Consider eight molecules from patent US12053533B2, “Fluorescent probe for cyclooxygenase-2” (The Board of Trustees of the University of Illinois, priority 2020, dated 2024).

Usually Km stands for the concentration of substrate that gives half-maximal velocity. By kcat is commonly meant the number of substrate molecules converted per active site and unit of time at saturation.

Data set [1] has as its target T1, COX-2 (Homo sapiens, UniProt P35354).
T1 sequence (P35354 18-604): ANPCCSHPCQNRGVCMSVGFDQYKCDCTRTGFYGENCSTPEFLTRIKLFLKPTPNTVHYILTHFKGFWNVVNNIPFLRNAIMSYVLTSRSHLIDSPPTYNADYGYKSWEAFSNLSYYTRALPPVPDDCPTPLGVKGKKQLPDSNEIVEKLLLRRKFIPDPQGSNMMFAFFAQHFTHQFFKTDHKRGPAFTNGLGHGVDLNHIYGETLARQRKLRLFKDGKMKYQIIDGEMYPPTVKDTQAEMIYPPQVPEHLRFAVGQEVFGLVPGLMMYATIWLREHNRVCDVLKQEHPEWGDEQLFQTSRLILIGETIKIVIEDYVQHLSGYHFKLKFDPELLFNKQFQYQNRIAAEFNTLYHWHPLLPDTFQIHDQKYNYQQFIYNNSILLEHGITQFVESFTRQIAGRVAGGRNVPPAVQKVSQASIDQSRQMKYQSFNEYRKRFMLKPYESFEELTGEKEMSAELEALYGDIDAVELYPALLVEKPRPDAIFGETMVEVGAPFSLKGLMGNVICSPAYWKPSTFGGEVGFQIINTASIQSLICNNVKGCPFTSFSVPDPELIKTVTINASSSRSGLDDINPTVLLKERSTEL
The note with it: comparison values for other COX-2 substrates; cited from earlier work.

For data set [2] the following is noted: ethanol; cited from earlier work.
Data set [3] addresses T1, COX-2. In words: COX-2 fluorescence assay with CoxFluor (fluorimeter / plate reader). Format: biochemical. The arrangement: made in house. The note with it: COX-2 250 nM, 4 h. The method, then:
Fluorimeter Fluorescence Assay. The fluorescence assays were performed in microquartz cuvettes or submicroquartz cuvettes with a maximum volume of 600 μL. Reactions were monitored at room temperature using 540 nm excitation and emission was collected from 550-700 nm with a slit width of 1.25 mm. Total volumes of the reaction mixtures were maintained at 570 μL. […] Experiments in the presence of reduced GSH were conducted according to the same procedure, but GSH (30 μL, 19 mM in 100 mM Tris-HCl, pH 8.0) was added before the addition of CoxFluor for a final concentration of 1 mM. Assays performed in submicroquartz cuvettes were performed maintaining the same ratios, but with a final volume of 142.5 μL.
Plate Reader Fluorescence Assay. The fluorescence assays were performed at room temperature using 540 nm excitation and 590 nm emission. Total volume of the reaction mixture was maintained at 190 μL. […] Inhibition assays were performed according to the same procedure, but COX-2 was preincubated with hemin and inhibitor for 0.5 h at 0° C. before initiation with CoxFluor. Relative fluorescence enhancement is calculated by comparing to a buffer control with 10 μM CoxFluor.

Data set [4] concerns COX-2 activity in HEK 293T cells over-expressing human COX-2. Kind of data set: Confocal live-cell imaging of human COX-2 transfected HEK 293T cells. Format: cell-based. The note with it: indomethacin 10 μM, CoxFluor 10 μM, 3 h.
A short description of data set [5]: Photophysical characterization. Format: physicochemical. The method, then:
Photophysical Characterization. Extinction coefficients and fluorescence quantum yields were acquired (n=3) and reported as the average with a relative standard deviation less than 15%. Extinction coefficients were acquired by titrating compound in 100 mM Tris-HCl (pH 8.0) within the linear range. Fluorescence quantum yields were obtained using the modified method for relative fluorescence quantum yield. Dye was titrated into the solution and the absorbance and emission were monitored (excitation at 540 nm). The absorbance was maintained below 0.1 to limit secondary absorbance events. Total emission spectra were integrated, and the relative quantum yield was calculated relative to Rhodamine B (ϕ=0.70, ethanol). The refractive index of 100 mM Tris-HCl (pH 8.0) was measured to be 1.33514.

Data set [6] can be described thus: CoxFluor, Ctrl-CoxFluor & Resorufin stability assays. Format: physicochemical. The note with it: 8 hours at room temperature or 37° C., with or without ambient light. The method, then: CoxFluor, Ctrl-CoxFluor & Resorufin Stability Assays. Stability assays were performed for a 10 μM solution of each compound in a series of buffers/solvents (100 mM Tris-HCl at pH 8.0, DMEM with 10% FBS, DMEM without serum and DMSO). Stability was assessed at room temperature or at 37° C. and in the presence or absence of ambient light. Fluorescence was measured using the plate reader with excitation at 540 nm and emission from 560-700 nm and the relative turn-on was determined by the change of fluorescence intensity at 590 nm.

Substrate in data set [7]: CCCCC/C=C\C/C=C\C/C=C\C/C=C\CCCC(=O)N1c2ccc(O)cc2Oc2cc(O)ccc21
In words: COX-2 fluorescence assay with CoxFluor (fluorimeter / plate reader). The note with it: other: steady state; COX-2 50 nM, hemin 200 nM; pH 8.0. Format: biochemical, human.

As for `CCCCC/C=C\C/C=C\C/C=C\C/C=C\CCCC(=O)O` [AA, arachidonic acid], the Km at COX-2 [1] is 6 µM. As for `CCN(CC)c1ccc2c(-c3ccccc3C(=O)O)c3ccc(=[N+](CC)CC)cc-3oc2c1.[Cl-]` [Rhodamine B], the “quantum yield ϕ of reference standard” value in data set [2] is on record as 0.70. For the molecule `CCN1C(=O)C=CC1=O` [NEM, N-ethylmaleimide, reference compound], on COX-2 [3] (varying N-ethylmaleimide concentrations, CoxFluor 10 μM), the “effect on COX activity” value was “does not affect COX activity”. For the molecule `CCCCC/C=C\C/C=C\C/C=C\C/C=C\CCCC(=O)NCCO` [arachidonyl ethanolamide], the Km at COX-2 [1] is 24 µM. Regarding `CCCCCCCCCCCCCCCCCCCC(=O)N1c2ccc(O)cc2Oc2cc(O)ccc21` [Ctrl-CoxFluor], on COX-2 [3] (hemin 1 μM), the “reactivity with COX-2 under the same reaction conditions” value is on record as “unreactive”. As for `COc1ccc2c(c1)c(CC(=O)O)c(C)n2C(=O)c1ccc(Cl)cc1` [indomethacin, reference compound], the “fluorescence enhancement of transfected cells upon treatment with inhibitor” value in data set [4] was “no fluorescence enhancement was observed”. On to `O=c1ccc2nc3ccc(O)cc3oc-2c1` [resorufin, reference compound], for which the “extinction coefficient ε at 573 nm” value in data set [5] (100 mM Tris-HCl pH 8.0) is recorded as 73,000 M^−1cm^−1. Further, in data set [5] (100 mM Tris-HCl pH 8.0, relative to Rhodamine B), the “fluorescence quantum yield ΦF” value came to 0.55. Moreover, in data set [6], the “stability in Tris-HCl and DMEM buffer systems” value is on record as “stable”.

B1: recombinant human COX-2 (Homo sapiens) (protein)
chain: T1 sequence (P35354 18-604)
notes: made in house
In the case of B1, in data set [7], the Km worked out at 22 µM and the kcat was 0.317 s⁻¹.
